Measurements published in article PMC10451623 (Antioxidants, 2023).

Experiments:
PPARγ-LBD = target: T1, PPARγ-LBD (Homo sapiens, UniProt P37231); assay: TR-FRET PGC1α coactivator recruitment assay; type: biochemical; parameters: PPARγ-LBD (amino acids 203–477 in isoform 1); made in house; host or cells: Rosetta (DE3) pLysS (E. coli); settings: PGC1α peptide, read-out: EC50, PGC1α recruitment to PPARγ-LBD
T1 sequence (P37231 203-477 isoform P37231-2): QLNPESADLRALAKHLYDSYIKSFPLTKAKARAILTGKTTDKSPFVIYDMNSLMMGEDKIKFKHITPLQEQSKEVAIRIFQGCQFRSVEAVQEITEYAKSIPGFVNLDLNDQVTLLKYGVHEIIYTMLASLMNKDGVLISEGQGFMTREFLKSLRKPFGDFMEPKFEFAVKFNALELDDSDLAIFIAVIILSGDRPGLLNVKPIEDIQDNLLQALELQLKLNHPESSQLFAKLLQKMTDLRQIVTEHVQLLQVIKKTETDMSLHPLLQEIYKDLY
Method: Subsequently, 5 µL of 4 nM Eu-W1024-labeled anti-6×His antibody/80 nM ULight-Streptavidin (PerkinElmer) was added to each well, and the microplate was incubated in the dark for 2 h, at room temperature. […] The nonlinear fitting and the calculation of the EC50 were performed using the Prism 9 software (GraphPad, San Diego, CA, USA).
The ligand-bound activated forms of PPARs are stabilized by associations with specific coactivators, thereby enabling the regulation of specific gene expression.
Figure 2 TR-FRET-based LBD-mediated human PPARα/δ/γ coactivator recruitment assay. […] Data are presented as the mean ± SE of three or four independent experiments with duplicate samples, and the calculated EC50 values are shown.

human PPARα = target: T2, human PPARα (Homo sapiens, UniProt Q07869); assay: Transactivation assay (GAL4–hPPARα-LBD chimera, luciferase reporter, COS-7 cells); type: cell-based; settings: for Emax: 100% = 1 µM GW7647, read-out: Efficacy, PPARα transactivation (% of the maximal response); for EC50: GAL4–hPPARα-LBD
T2 construct: expressed in transfected cells; host or cells: COS-7
T2 sequence (Q07869 239-466 limits assumed): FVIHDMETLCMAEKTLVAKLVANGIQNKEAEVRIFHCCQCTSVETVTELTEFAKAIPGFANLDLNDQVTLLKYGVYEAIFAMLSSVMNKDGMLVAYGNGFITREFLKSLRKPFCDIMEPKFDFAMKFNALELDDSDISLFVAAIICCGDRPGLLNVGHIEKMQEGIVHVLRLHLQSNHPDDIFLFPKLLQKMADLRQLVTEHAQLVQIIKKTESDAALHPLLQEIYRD
Method: The pSG5-GAL–hPPARα/δ/γ plasmids express fusion proteins comprising the yeast transcription factor GAL4 DNA-binding domain and each of the human PPARα/δ/γ-LBDs. The MH100(UAS)×4-tk-Luc plasmid contains four copies of the MH100 GAL4 binding site and the Firefly luciferase gene. The cells were transfected with those plasmids and were treated with various PPAR ligands, and both Firefly and Renilla luciferase activities were measured using the Dual-Glo Luciferase Assay System (Promega, Madison, WI, USA) as described previously. […] GW1929 was purchased from Sigma-Aldrich (St. Louis, MO, USA).
For the undertaking of the comparison of the potency, efficacy, and selectivity of the five PPAR ligands (Figure 1A) against the PPAR subtypes, we evaluated their PPARα/δ/γ activation using three different methods: a cell-based transactivation assay, a coactivator recruitment assay, and a thermal stability assay, as we previously performed on three fibrates (namely, bezafibrate, fenofibric acid, and pemafibrate). The cell-based transactivation assay utilizing the Gal4–PPAR-LBD system is the most widely used method for the determination of PPAR activation by certain ligands, although their responses depend on the used cell types in which several coactivators with altered functions are differentially expressed.
Figure 1 LBD-mediated human PPARα/δ/γ transactivation by PPAR ligands. (A) Chemical structures of the five PPAR ligands used in this study. […] Data are presented as the mean ± standard error (SE) of three independent experiments with duplicate samples.

PPARδ-LBD = target: T3, PPARδ-LBD (Homo sapiens, UniProt Q03181); assay: Thermal stability assay using circular dichroism spectroscopy; type: binding; parameters: PPARδ-LBD (amino acids 170–441); His tag (pET28a) (N); made in house; host or cells: Rosetta (DE3) pLysS (E. coli); settings: CD at 222 nm; 10 µM LBD; GW501516 at 50 µM
T3 sequence (Q03181 170-441): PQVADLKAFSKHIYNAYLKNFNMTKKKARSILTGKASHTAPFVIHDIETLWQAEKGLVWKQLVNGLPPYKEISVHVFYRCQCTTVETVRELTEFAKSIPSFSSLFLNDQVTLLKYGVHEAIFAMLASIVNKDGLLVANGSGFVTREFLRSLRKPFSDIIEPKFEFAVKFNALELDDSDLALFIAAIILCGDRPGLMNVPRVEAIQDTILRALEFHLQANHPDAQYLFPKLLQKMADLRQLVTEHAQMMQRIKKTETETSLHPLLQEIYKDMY
Method: PPARα/δ/γ-LBD proteins (10 µM) were incubated with different concentrations of ligands in buffer C consisting of 20 mM Tris-HCl (pH 8.0), 150 mM NaCl, 1 mM Tris 2-carboxyethylphosphine (TCEP)-HCl, and 10% glycerol. The circular dichroism (CD) spectra were monitored within a 200–260 nm range at increasing temperatures from 30 °C to 70 °C (2 °C/min) using a J-1500 spectropolarimeter equipped with a PTC-510 thermal controller (JASCO, Tokyo, Japan). […] The ligand-induced increases in the Tm values were defined as ∆Tm.
Nuclear receptors, including PPARs, display an increased thermal stability upon ligand binding, which is detectable through CD spectroscopy.
Figure 3 Circular dichroism-based PPARα/δ/γ-LBD thermal stability assay. […] Data are presented as the mean ± SE of three or four (in parentheses) independent experiments. Differences vs. basal levels (with 0.1% DMSO) were statistically assessed by one-way ANOVA, followed by a Dunnett’s post hoc test: * p < 0.05, ** p < 0.01, and *** p < 0.001.

| SMILES | EC50 (PPARγ-LBD) [µM] | Emax (human PPARα) [%] | EC50 (human PPARα) [µM] | Effect on Tm of PPARδ-LBD (in words) (PPARδ-LBD) |
| --- | --- | --- | --- | --- |
| CSc1ccc(C(=O)/C=C/c2cc(C)c(OC(C)(C)C(=O)O)c(C)c2)cc1 [elafibranor] | 15.5 | 38.5 | 0.388 | did not significantly alter the Tm values |
| O=C(O)CCCc1cc2cc(Cl)ccc2n1S(=O)(=O)c1ccc2ncsc2c1 [lanifibranor] | 4.65 | 13.3 | 4.66 | increased the Tm values |
| CCO[C@@H](Cc1ccc(OCCn2c(C)ccc2-c2ccc(SC)cc2)cc1)C(=O)O [saroglitazar] | 1.03 | 56.4 | 0.19 | highly increased the Tm values |
| CCO[C@H](COc1ccc(C(F)(F)F)cc1)CSc1ccc(OCC(=O)O)c(C)c1 [seladelpar] | 19.4 | 41 | 1.64 | increased the Tm values |
